Values quoted from earlier work, collected in patent US4996231A, “Triyne cyclic carbonates” (Merck & Co., Inc., priority 1989, dated 1991).

Experiments:
cytosolic β-ketothiolase = conditions: initial enzyme of cholesterol biosynthesis
[1] = system: certain bacterial strains

For C#CC#CC#CC(O)C1OC(=O)OC1CCCCCCC(=O)O (stereo not shown) [triyne carbonate A, 5-(1-hydroxy-2,4,6-heptatriynyl)-2-oxo-1,3 dioxolane 4heptanoic acid], the “active against certain fungal strains” value (certain fungal strains) is listed as “active against certain fungal and bacterial strains”, the “instability of the compound in vivo” value is listed as “relative instability” and the “inhibitor of cytosolic β-ketothiolase” value (cytosolic β-ketothiolase) is listed as “potent inhibitor”. The “active against certain bacterial strains” value [1] was “active against certain fungal and bacterial strains”.
